Data reported in patent US20080293571A1, “Insecticide organic fertilizer composition, process and method” (priority 2007, published 2008).

Assay: Biodegradation of rotenone after the composition is poured onto soil
Conditions: rotenone in the composition

C=C(C)[C@H]1Cc2c(ccc3c2O[C@@H]2COc4cc(OC)c(OC)cc4[C@@H]2C3=O)O1 [rotenone]
Time until substantially biodegraded after pouring or drenching the nest: approximately 3 days
Time until biodegrading after pouring the solution onto the soil (stable in liquid form in the container): 2 to 5 days
